{
  "source": "ChEMBL document CHEMBL1201862",
  "about": "“PubChem BioAssay data set” (2004)",
  "key": {"[1]": {"target": "Long-chain-fatty-acid--AMP ligase FadD28 (Mycobacterium tuberculosis, UniProt P9WQ59)", "sequence (P9WQ59 whole entry)": "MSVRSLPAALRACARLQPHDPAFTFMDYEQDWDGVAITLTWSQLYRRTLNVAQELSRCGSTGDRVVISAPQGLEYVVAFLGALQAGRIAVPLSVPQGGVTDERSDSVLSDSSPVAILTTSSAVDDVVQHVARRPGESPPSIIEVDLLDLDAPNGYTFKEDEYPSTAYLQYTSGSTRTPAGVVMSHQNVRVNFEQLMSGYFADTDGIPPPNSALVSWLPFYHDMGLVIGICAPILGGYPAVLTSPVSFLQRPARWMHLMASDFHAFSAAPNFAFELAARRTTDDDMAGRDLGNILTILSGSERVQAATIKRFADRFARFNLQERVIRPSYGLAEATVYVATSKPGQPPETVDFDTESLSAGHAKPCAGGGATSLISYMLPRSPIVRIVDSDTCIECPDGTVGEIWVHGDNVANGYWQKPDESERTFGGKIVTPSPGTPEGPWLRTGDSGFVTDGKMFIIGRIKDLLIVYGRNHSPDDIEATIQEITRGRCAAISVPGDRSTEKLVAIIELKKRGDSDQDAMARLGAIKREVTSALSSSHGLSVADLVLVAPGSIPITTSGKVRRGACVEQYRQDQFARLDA", "experiment": "Fluorescence polarization aasay to screen for inhibitors that compete for the binding of FadD28 to a bisubstrate Measured in Biochemical System Using Plate Reader - 2147-01_Inhibitor_Dose_CherryPick_Activity.", "type": "functional, Mycobacterium tuberculosis H37Rv"}, "[2]": {"target": "Large T antigen (Simian virus 40, UniProt P03070)", "sequence (P03070 whole entry)": "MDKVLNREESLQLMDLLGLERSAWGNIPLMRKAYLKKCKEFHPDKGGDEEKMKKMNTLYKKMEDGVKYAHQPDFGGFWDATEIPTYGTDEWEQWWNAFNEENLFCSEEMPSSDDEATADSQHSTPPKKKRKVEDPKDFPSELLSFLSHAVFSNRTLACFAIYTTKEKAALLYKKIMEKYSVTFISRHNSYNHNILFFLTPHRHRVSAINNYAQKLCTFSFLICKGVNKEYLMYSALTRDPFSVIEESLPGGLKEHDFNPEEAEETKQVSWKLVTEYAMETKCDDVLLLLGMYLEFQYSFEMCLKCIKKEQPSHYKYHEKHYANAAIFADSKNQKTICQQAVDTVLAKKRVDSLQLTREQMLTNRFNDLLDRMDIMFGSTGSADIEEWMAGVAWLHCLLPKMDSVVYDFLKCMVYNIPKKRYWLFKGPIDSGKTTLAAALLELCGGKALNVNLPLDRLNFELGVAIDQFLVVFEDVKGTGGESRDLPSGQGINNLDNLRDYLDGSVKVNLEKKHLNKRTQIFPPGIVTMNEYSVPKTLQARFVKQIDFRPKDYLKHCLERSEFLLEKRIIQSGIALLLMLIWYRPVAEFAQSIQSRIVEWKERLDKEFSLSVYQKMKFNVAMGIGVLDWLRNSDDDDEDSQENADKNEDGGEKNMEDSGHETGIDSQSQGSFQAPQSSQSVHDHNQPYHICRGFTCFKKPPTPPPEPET", "type": "functional, Betapolyomavirus macacae"}, "[3]": {"target": "Broad substrate specificity ATP-binding cassette transporter ABCG2 (Homo sapiens, UniProt Q9UNQ0)", "sequence (Q9UNQ0 whole entry)": "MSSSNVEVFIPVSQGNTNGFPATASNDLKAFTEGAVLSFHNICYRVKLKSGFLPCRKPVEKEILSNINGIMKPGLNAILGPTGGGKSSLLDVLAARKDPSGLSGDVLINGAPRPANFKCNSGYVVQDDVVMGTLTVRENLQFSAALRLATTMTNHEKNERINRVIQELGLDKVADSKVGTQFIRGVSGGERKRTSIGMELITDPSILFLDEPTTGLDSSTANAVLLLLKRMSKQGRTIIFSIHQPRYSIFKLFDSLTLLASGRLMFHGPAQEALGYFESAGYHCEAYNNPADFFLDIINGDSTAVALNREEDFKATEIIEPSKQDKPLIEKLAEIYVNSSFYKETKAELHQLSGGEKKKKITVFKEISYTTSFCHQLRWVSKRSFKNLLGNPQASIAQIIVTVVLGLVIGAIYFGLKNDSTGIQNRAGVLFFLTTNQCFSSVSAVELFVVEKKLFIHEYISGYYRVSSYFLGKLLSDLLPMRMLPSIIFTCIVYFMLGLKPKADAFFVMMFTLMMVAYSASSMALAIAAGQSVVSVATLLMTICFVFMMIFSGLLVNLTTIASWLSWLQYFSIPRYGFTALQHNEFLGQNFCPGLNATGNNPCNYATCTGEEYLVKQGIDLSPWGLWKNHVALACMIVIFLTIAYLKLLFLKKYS", "experiment": "blockers of JC-1 export by ABCG2 – Ig-MXP3 cells, flow cytometry, dose response (AID 1690)", "type": "functional"}, "[4]": {"target": "DNA (cytosine-5)-methyltransferase 1 (Homo sapiens, UniProt P26358)", "sequence (P26358 whole entry)": "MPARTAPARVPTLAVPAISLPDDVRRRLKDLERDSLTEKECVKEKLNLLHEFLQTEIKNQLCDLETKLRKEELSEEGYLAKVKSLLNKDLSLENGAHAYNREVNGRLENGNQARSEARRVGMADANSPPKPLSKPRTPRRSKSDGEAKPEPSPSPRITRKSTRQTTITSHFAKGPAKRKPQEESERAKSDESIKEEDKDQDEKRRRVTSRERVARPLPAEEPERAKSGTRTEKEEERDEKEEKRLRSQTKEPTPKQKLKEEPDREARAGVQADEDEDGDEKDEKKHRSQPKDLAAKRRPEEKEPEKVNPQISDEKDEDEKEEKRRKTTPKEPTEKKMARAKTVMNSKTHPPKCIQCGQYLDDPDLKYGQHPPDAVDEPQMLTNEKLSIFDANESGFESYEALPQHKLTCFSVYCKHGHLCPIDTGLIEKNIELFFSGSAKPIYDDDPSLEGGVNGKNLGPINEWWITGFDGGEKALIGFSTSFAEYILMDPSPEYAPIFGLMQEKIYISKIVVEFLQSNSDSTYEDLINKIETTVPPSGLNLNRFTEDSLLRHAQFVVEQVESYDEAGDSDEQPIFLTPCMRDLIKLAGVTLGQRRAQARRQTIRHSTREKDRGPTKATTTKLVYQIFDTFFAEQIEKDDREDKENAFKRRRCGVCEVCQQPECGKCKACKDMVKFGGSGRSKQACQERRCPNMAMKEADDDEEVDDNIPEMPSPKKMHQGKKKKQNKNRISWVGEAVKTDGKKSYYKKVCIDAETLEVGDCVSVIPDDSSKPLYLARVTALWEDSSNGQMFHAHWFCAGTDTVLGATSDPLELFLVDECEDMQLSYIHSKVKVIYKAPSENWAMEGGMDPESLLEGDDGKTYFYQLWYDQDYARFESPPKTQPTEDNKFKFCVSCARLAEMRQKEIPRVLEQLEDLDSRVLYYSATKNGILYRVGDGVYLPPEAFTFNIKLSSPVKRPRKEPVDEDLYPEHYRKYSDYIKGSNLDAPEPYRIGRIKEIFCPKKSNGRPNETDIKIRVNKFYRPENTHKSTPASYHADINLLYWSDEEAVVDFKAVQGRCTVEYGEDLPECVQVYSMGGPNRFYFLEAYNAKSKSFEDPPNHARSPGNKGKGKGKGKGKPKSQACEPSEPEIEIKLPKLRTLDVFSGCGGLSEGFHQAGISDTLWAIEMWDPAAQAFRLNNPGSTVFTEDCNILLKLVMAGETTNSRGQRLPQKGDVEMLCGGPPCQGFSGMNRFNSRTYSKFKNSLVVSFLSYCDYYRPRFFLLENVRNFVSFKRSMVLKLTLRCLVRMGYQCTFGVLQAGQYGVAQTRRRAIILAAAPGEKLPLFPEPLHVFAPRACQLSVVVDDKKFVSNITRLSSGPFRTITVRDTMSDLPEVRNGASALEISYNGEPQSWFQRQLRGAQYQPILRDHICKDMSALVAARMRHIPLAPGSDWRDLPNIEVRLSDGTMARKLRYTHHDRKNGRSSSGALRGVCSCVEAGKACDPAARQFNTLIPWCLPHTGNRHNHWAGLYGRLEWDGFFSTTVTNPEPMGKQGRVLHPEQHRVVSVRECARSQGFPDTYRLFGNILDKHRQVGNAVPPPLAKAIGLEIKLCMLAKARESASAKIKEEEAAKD", "experiment": "inhibition of DNA methylation by DNMT1 – biochemical, fluorescent molecular beacon, confirmation (AID 602386)", "type": "functional"}, "[5]": {"target": "Bcl-2-like protein 10 (Homo sapiens, UniProt Q9HD36)", "sequence (Q9HD36 whole entry)": "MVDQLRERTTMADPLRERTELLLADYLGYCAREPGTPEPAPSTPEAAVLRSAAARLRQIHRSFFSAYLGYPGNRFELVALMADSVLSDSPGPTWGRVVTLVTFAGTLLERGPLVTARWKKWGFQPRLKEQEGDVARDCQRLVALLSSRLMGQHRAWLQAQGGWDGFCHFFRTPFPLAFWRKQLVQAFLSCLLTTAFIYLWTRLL", "experiment": "Bcl-B/TR3 peptide binding disruption – biochemical, fluorescence polarization, FITC-TR3 peptide, selectivity assay for Bfl-1 inhibitor project, primary screen (AID 748);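 further: fluorescence polarization from a fluorescein-labelled TR3 peptide binding purified Bcl-B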"}, "[6]": {"target": "T1, Estrogen receptor beta (Homo sapiens, UniProt Q92731)", "T1 sequence (Q92731 whole entry)": "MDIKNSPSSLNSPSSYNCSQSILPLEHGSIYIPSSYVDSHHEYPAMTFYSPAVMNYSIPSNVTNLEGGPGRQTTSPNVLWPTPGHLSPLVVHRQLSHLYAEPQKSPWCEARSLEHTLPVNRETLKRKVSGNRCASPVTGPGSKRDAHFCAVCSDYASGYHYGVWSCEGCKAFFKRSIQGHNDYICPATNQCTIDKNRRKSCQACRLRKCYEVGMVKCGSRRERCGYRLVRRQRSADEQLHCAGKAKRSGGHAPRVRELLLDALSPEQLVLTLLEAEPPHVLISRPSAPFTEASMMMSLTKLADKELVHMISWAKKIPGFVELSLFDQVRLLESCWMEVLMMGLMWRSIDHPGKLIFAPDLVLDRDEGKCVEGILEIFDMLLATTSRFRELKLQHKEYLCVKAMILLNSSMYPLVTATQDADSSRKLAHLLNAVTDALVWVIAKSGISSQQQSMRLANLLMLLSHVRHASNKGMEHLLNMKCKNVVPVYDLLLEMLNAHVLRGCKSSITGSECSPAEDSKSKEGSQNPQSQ", "experiment": "blockers of SRC-3 recruitment to ERβ – biochemical, ELISA, streptavidin-HRP readout, orthogonal assay, confirmation (AID 1060)"}, "[7]": {"target": "Dual specificity protein phosphatase 3 (Homo sapiens, UniProt P51452)", "sequence (P51452 whole entry)": "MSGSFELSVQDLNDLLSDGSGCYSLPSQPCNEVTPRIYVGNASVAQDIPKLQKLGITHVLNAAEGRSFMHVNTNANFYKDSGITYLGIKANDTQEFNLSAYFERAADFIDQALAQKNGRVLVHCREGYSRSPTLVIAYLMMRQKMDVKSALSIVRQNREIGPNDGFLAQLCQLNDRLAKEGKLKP", "experiment": "VHR phosphatase inhibition, dose response, selectivity assay for STEP inhibitor project, biochemical (AID 602374)", "type": "functional", "details": "read-out: IC50_Mean"}, "[8]": {"target": "T1, Estrogen receptor beta"}, "[9]": {"target": "T2, Tyrosine-protein phosphatase non-receptor type 11 (Homo sapiens, UniProt Q06124)", "T2 sequence (Q06124 whole entry)": "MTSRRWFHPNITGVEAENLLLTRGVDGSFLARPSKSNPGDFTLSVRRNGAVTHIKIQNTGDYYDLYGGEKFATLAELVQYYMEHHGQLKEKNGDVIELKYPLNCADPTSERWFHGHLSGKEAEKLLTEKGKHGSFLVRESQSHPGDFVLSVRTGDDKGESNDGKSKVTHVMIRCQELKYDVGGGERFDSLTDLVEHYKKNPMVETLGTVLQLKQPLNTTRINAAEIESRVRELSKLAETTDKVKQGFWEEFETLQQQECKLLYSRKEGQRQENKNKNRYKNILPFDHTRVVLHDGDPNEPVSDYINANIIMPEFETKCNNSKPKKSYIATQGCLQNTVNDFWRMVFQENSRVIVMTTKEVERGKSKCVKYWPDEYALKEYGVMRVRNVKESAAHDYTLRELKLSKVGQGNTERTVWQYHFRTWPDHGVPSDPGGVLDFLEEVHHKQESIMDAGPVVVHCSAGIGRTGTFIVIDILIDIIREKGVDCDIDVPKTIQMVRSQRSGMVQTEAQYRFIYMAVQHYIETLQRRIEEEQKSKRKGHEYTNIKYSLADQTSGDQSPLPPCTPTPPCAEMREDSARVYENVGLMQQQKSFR", "experiment": "PTPN11 enzyme inhibitors – biochemical, selectivity assay for STEP inhibitor project, dose response (AID 602367)", "type": "functional", "details": "read-out: IC50_Mean"}, "[10]": {"target": "T3, Estrogen receptor (Homo sapiens, UniProt P03372)", "T3 sequence (P03372 whole entry)": "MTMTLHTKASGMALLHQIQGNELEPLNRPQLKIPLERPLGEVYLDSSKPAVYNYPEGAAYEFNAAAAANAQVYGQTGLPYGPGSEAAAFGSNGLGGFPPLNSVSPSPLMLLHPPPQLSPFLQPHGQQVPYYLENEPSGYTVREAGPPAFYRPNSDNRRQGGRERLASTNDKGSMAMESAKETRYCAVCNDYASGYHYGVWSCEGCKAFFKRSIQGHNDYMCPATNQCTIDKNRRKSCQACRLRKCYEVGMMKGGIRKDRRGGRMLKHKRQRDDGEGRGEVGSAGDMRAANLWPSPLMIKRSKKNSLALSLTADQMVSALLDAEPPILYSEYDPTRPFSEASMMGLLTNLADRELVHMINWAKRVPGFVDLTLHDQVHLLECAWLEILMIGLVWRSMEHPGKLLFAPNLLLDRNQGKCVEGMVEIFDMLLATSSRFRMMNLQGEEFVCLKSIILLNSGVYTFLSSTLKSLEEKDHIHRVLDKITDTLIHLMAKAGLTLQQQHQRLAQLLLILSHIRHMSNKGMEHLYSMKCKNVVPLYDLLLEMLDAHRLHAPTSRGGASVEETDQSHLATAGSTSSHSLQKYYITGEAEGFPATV"}, "[11]": {"target": "T4, Tyrosine-protein phosphatase non-receptor type 7 (Homo sapiens, UniProt P35236)", "T4 sequence (P35236 whole entry)": "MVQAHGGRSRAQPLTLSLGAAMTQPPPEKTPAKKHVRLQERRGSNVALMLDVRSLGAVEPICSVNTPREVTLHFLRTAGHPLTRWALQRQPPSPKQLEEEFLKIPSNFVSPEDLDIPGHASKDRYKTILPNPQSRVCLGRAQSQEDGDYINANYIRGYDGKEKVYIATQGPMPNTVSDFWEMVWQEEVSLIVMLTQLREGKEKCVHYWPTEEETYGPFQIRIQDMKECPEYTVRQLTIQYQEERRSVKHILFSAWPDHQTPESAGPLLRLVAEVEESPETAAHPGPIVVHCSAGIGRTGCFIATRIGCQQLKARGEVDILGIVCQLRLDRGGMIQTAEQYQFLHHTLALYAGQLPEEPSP", "experiment": "HePTP tyrosine phosphatase activity blockers – biochemical, absorbance, leukemia target, primary screen (AID 521)", "type": "functional"}, "[12]": {"target": "T5, Tyrosine-protein phosphatase non-receptor type 22 (Homo sapiens, UniProt Q9Y2R2)", "T5 sequence (Q9Y2R2 whole entry)": "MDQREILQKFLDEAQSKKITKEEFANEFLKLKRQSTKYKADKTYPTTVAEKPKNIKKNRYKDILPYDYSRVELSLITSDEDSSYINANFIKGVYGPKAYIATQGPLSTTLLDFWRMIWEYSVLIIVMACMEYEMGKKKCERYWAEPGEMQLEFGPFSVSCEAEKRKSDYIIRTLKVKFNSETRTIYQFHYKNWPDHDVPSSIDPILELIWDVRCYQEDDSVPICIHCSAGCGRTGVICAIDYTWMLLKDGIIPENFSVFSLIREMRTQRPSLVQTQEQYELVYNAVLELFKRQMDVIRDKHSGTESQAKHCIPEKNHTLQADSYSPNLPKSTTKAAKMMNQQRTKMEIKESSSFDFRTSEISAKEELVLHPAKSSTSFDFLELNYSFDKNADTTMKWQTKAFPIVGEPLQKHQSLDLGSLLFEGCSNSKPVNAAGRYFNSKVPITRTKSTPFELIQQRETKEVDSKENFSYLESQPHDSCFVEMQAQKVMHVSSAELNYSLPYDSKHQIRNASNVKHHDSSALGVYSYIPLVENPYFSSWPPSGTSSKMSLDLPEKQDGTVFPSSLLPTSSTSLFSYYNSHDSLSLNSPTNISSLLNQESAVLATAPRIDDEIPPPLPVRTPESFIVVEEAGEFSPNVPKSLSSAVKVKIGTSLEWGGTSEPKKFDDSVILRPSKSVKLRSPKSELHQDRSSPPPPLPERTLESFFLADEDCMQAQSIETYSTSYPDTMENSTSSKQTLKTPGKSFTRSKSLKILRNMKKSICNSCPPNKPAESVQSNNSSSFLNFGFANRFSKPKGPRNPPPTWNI", "experiment": "lymphoid phosphatase LYP inhibitors – biochemical, selectivity assay for STEP inhibitor project, dose response (AID 624241)", "type": "functional"}, "[13]": {"experiment": "HIV-1 Vif–A3G interaction blockers – biochemical, TR-FRET, GST-Vif 1-94, biotin-A3G peptide, dose response retest, primary screen (AID 1117319);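 further: TR-FRET signal of purified GST-Vif binding a biotinylated A3G peptide; inhibitors lower the FRET signal by blocking Vif and A3G binding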", "type": "functional"}, "[14]": {"target": "T6, Tyrosine-protein phosphatase non-receptor type 5 (Homo sapiens, UniProt P54829)", "T6 sequence (P54829 whole entry)": "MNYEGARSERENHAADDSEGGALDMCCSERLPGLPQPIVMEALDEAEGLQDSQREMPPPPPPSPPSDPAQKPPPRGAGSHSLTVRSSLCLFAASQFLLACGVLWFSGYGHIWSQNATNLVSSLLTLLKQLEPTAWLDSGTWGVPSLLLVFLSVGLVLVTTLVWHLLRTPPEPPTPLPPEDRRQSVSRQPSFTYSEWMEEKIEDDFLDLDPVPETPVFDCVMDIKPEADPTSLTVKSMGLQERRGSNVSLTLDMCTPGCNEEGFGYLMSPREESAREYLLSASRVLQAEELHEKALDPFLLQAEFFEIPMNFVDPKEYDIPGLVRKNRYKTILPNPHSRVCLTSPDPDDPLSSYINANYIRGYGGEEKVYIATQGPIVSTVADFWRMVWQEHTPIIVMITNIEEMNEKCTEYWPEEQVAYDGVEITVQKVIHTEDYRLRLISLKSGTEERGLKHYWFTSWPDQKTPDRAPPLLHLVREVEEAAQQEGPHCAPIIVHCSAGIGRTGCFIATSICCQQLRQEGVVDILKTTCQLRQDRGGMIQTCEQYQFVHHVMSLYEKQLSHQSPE", "experiment": "PTPN5 enzyme inhibition – biochemical, fluorescence intensity, uHTS hits, confirmation (AID 602372)", "type": "functional", "details": "read-out: IC50_Mean"}},
  "note": "Active and inactive are the calls of the source.",
  "data": [
    {"smiles": "Cc1[nH]c2ccccc2c1-c1csc(NC(=O)CSCC(=O)O)n1", "values": [
      {"measurement": "AC50", "setting": "[1]", "result": "> 100 µM (inactive)"},
      {"measurement": "IC50", "setting": "[2]", "result": "26.2 µM (active)"}
    ]},
    {"smiles": "COc1cc(C(=O)Nc2ccc(S(=O)(=O)NC(C)C)cc2)cc(OC)c1OC", "values": [
      {"measurement": "EC50", "setting": "[3]", "result": "1.32 µM (inactive)"}
    ]},
    {"smiles": "COc1ccc(OC)c(N2C(=O)[C@@H]3C(c4ccccc4Cl)=NO[C@@H]3C2=O)c1", "values": [
      {"measurement": "IC50", "setting": "[4]", "result": "4.35 µM (active)"},
      {"measurement": "IC50", "setting": "[5]", "result": "14.9 µM (active)"},
      {"measurement": "IC50", "setting": "[6]", "result": "> 50 µM (not active)"},
      {"measurement": "IC50", "setting": "[7]", "result": "833 nM (active)"},
      {"measurement": "IC50", "setting": "[8]", "result": "2.49 µM (active)"},
      {"measurement": "IC50", "setting": "[9]", "result": "469 nM (active)"},
      {"measurement": "IC50", "setting": "[10]", "result": "9.78 µM (active)"},
      {"measurement": "IC50", "setting": "[11]", "result": "8.25 µM (active)"},
      {"measurement": "IC50", "setting": "[12]", "result": "> 100 µM (inactive)"},
      {"measurement": "IC50", "setting": "[13]", "result": "> 100 µM (active)"},
      {"measurement": "IC50", "setting": "[14]", "result": "24.4 µM (inactive)"}
    ]}
  ]
}
